# Patent US8952024B2, “Herbicidal pyrimidone derivatives” (E I du Pont de Nemours and Company, priority 2009, dated 2015)
# Columns and labels:
# Type in all cases: in vivo
# [1] = tested on: bermudagrass (Cynodon dactylon); assay: Test B pre-/postemergence plant response
# Outline: (§1)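 Steps: sow seed in loam–sand soil and spray preemergence, or grow plants in peat-based medium to 1–4 leaves (2–18 cm) and spray postemergence; formulation is non-phytotoxic solvent plus surfactant; hold in greenhouse 13–15 days; score visually vs controls, 0 = no effect, 100 = complete control.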
# [2] = tested on: cocklebur (Xanthium strumarium); assay: Test B pre-/postemergence plant response
# Outline: as §1
# [3] = tested on: goosegrass (Eleusine indica); assay: Test B pre-/postemergence plant response
# Outline: as §1
# [4] = tested on: green foxtail (Setaria viridis); assay: Test B pre-/postemergence plant response
# Outline: as §1
# [5] = tested on: lambsquarters (Chenopodium album); assay: Test B pre-/postemergence plant response
# Outline: as §1
# [6] = tested on: large crabgrass (Digitaria sanguinalis); assay: Test B pre-/postemergence plant response
# Outline: as §1
# [7] = tested on: morningglory (Ipomoea coccinea); assay: Test B pre-/postemergence plant response
# Outline: as §1
# [8] = tested on: wheat (Triticum aestivum); assay: Test B pre-/postemergence plant response
# Outline: as §1
# wild oat (Avena fatua) = assay: Test B pre-/postemergence plant response
# Outline: as §1
# [9] = tested on: yellow nutsedge (Cyperus esculentus); assay: Test B pre-/postemergence plant response
# Outline: as §1
# [10] = tested on: barnyardgrass (Echinochloa crus-galli); assay: Test B flooded paddy test; conditions: for Plant response rating, Flood, Barnyardgrass: 250 g ai/ha, flooded paddy test, visual rating on 0 to 100 scale (0 no effect, 100 complete control) after 13 to 15 days; for Plant response rating, Barnyardgrass: Flood (flooded paddy test), 13 to 15 days
# Outline: (§2)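 Seedlings reaching 2 leaves are flooded 3 cm deep; test material is delivered to that water, which stays at the same depth. Plants remain in a greenhouse 13–15 days and are then scored by eye versus controls from 0 to 100.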
# [11] = tested on: umbrella sedge (Cyperus difformis); assay: Test B flooded paddy test; conditions: for Plant response rating, Flood, Sedge, Umbrella: 250 g ai/ha, flooded paddy test, visual rating on 0 to 100 scale (0 no effect, 100 complete control) after 13 to 15 days; for Plant response rating, Sedge, Umbrella: Flood (flooded paddy test), 13 to 15 days
# Outline: as §2
# [12] = 62 g ai/ha, postemergence, 0 is no effect, 100 is complete control, 13 to 15 days
# [13] = Postemergence, 31 g ai/ha, 0 to 100 scale (0 no effect, 100 complete control)
# [14] = Postemergence, 125 g ai/ha, scale 0 to 100 (0 no effect, 100 complete control)
# [15] = Postemergence, 250 g ai/ha, scale 0 to 100 (0 no effect, 100 complete control), 13 to 15 days
# [16] = 62 g ai/ha, scale of 0 to 100 where 0 is no effect and 100 is complete control
# [17] = 250 g ai/ha, Preemergence, 0 to 100 scale
# [18] = Postemergence, 31 g ai/ha, scale 0 to 100 (0 no effect, 100 complete control)
# [19] = Postemergence, 62 g ai/ha, scale 0 (no effect) to 100 (complete control), 13 to 15 days
# [20] = Postemergence, 125 g ai/ha, visual rating after 13 to 15 days, scale 0 (no effect) to 100 (complete control)
# [21] = Postemergence, 250 g ai/ha, scale 0 to 100
# [22] = Preemergence, 31 g ai/ha, scale 0 to 100 (0 no effect, 100 complete control)
# [23] = Preemergence, 62 g ai/ha, scale 0 to 100 (0 no effect, 100 complete control)
# [24] = Preemergence, 125 g ai/ha, 0 to 100 scale
# [25] = 31 g ai/ha, scale of 0 to 100 where 0 is no effect and 100 is complete control
# [26] = 62 g ai/ha, scale 0 to 100, 0 is no effect, 100 is complete control
# [27] = 125 g ai/ha, scale 0 to 100, 0 is no effect, 100 is complete control
compound,measurement,setting,value
CCCn1c(-c2cccc(Br)c2)ncc(C(=O)C2=C(O)CCCC2=O)c1=O [Compound 141],Bermudagrass plant response rating (0 to 100 scale),[1]; [12],85
same,"Plant response rating, Bermudagrass",[1]; [13],80
same,"Plant response rating, Bermudagrass",[1]; [14],85
same,"Plant response rating, Bermudagrass",[1]; [15],90
same,Cocklebur plant response rating (0 to 100 scale),[2]; [12],65
same,"Plant response rating, Cocklebur",[2]; [13],40
same,"Plant response rating, Cocklebur",[2]; [14],95
same,"Plant response rating, Cocklebur",[2]; [15],100
same,Goosegrass plant response rating (0 to 100 scale),[3]; [12],75
same,"Plant response rating, Goosegrass",[3]; [13],65
same,"Plant response rating, Goosegrass",[3]; [14],75
same,"Plant response rating, Goosegrass",[3]; [15],80
same,"Foxtail, Green plant response rating (0 to 100 scale)",[4]; [12],75
same,"Plant response rating, Foxtail, Green",[4]; [13],50
same,"Plant response rating, Foxtail, Green",[4]; [14],90
same,"Plant response rating, Foxtail, Green",[4]; [15],90
same,Lambsquarters plant response rating (0 to 100 scale),[5]; [12],80
same,"Plant response rating, Lambsquarters",[5]; [13],80
same,"Plant response rating, Lambsquarters",[5]; [14],98
same,"Plant response rating, Lambsquarters",[5]; [15],100
same,"Crabgrass, Large plant response rating (0 to 100 scale)",[6]; [12],75
same,"Plant response rating, Crabgrass, Large",[6]; [13],70
same,"Plant response rating, Crabgrass, Large",[6]; [14],80
same,"Plant response rating, Crabgrass, Large",[6]; [15],85
same,Morningglory plant response rating (0 to 100 scale),[7]; [12],60
same,"Plant response rating, Morningglory",[7]; [13],60
same,"Plant response rating, Morningglory",[7]; [14],60
same,"Plant response rating, Morningglory",[7]; [15],65
same,Wheat plant response rating (0 to 100 scale),[8]; [12],5
same,"Plant response rating, Wheat",[8]; [13],0
same,"Plant response rating, Wheat",[8]; [14],5
same,"Plant response rating, Wheat",[8]; [15],10
same,"Oat, Wild plant response rating (0 to 100 scale)",wild oat (Avena fatua); [12],10
same,"Plant response rating, Oat, Wild",wild oat (Avena fatua); [13],10
same,"Plant response rating, Oat, Wild",wild oat (Avena fatua); [14],15
same,"Plant response rating, Oat, Wild",wild oat (Avena fatua); [15],40
same,"Nutsedge, Yellow plant response rating (0 to 100 scale)",[9]; [12],10
same,"Plant response rating, Nutsedge, Yellow",[9]; [13],0
same,"Plant response rating, Nutsedge, Yellow",[9]; [14],60
same,"Plant response rating, Nutsedge, Yellow",[9]; [15],60
same,"Plant response rating, Flood, Barnyardgrass",[10],50
same,"Plant response rating, Barnyardgrass",[10]; [16],20
same,"Plant response rating, Flood, Sedge, Umbrella",[11],85
same,"Plant response rating, Sedge, Umbrella",[11]; [16],80
O=C1CCCC(O)=C1C(=O)c1cnc(-c2ccccc2)n(-c2cccc(Br)c2)c1=O [Compound 38],"Plant response rating, Bermudagrass",[1]; [17],100
same,"Plant response rating, Bermudagrass",[1]; [18],98
same,"Plant response rating, Bermudagrass",[1]; [19],100
same,"Plant response rating, Bermudagrass",[1]; [20],100
same,Bermudagrass plant response rating,[1]; [21],100
same,"Plant response rating, Bermudagrass",[1]; [22],98
same,"Plant response rating, Bermudagrass",[1]; [23],100
same,Bermudagrass plant response rating,[1]; [24],100
same,"Plant response rating, Cocklebur",[2]; [17],90
same,"Plant response rating, Cocklebur",[2]; [22],0
same,"Plant response rating, Cocklebur",[2]; [23],10
same,Cocklebur plant response rating,[2]; [24],25
same,"Plant response rating, Goosegrass",[3]; [17],100
same,"Plant response rating, Goosegrass",[3]; [19],85
same,"Plant response rating, Goosegrass",[3]; [20],90
same,Goosegrass plant response rating,[3]; [21],95
same,"Plant response rating, Goosegrass",[3]; [22],95
same,Goosegrass plant response rating,[3]; [24],100
same,"Plant response rating, Foxtail, Green",[4]; [17],100
same,"Plant response rating, Foxtail, Green",[4]; [18],85
same,"Plant response rating, Foxtail, Green",[4]; [19],90
same,"Plant response rating, Foxtail, Green",[4]; [20],95
same,"Foxtail, Green plant response rating",[4]; [21],95
same,"Plant response rating, Foxtail, Green",[4]; [22],20
same,"Plant response rating, Foxtail, Green",[4]; [23],30
same,"Foxtail, Green plant response rating",[4]; [24],85
same,"Plant response rating, Lambsquarters",[5]; [17],100
same,"Plant response rating, Lambsquarters",[5]; [19],95
same,"Plant response rating, Lambsquarters",[5]; [20],100
same,Lambsquarters plant response rating,[5]; [21],100
same,"Plant response rating, Lambsquarters",[5]; [22],98
same,"Plant response rating, Lambsquarters",[5]; [23],98
same,Lambsquarters plant response rating,[5]; [24],100
same,"Plant response rating, Crabgrass, Large",[6]; [17],100
same,"Plant response rating, Crabgrass, Large",[6]; [18],90
same,"Plant response rating, Crabgrass, Large",[6]; [19],90
same,"Plant response rating, Crabgrass, Large",[6]; [20],98
same,"Crabgrass, Large plant response rating",[6]; [21],100
same,"Plant response rating, Crabgrass, Large",[6]; [22],60
same,"Plant response rating, Crabgrass, Large",[6]; [23],90
same,"Crabgrass, Large plant response rating",[6]; [24],100
same,"Plant response rating, Morningglory",[7]; [17],100
same,"Plant response rating, Morningglory",[7]; [19],70
same,"Plant response rating, Morningglory",[7]; [20],75
same,"Plant response rating, Morningglory",[7]; [22],0
same,"Plant response rating, Morningglory",[7]; [23],0
same,Morningglory plant response rating,[7]; [24],0
same,"Plant response rating, Wheat",[8]; [17],5
same,"Plant response rating, Wheat",[8]; [19],20
same,"Plant response rating, Wheat",[8]; [20],40
same,"Plant response rating, Wheat",[8]; [22],0
same,Wheat plant response rating,[8]; [24],0
same,"Plant response rating, Oat, Wild",wild oat (Avena fatua); [17],20
same,"Plant response rating, Oat, Wild",wild oat (Avena fatua); [19],75
same,"Plant response rating, Oat, Wild",wild oat (Avena fatua); [20],80
same,"Plant response rating, Oat, Wild",wild oat (Avena fatua); [22],0
same,"Oat, Wild plant response rating",wild oat (Avena fatua); [24],0
same,"Plant response rating, Nutsedge, Yellow",[9]; [17],80
same,"Plant response rating, Nutsedge, Yellow",[9]; [19],0
same,"Plant response rating, Nutsedge, Yellow",[9]; [20],15
same,"Plant response rating, Nutsedge, Yellow",[9]; [22],10
same,"Nutsedge, Yellow plant response rating",[9]; [24],70
same,"Plant response rating, Flood, Barnyardgrass",[10],0
same,"Plant response rating, Barnyardgrass",[10]; [25],0
same,"Plant response rating, Barnyardgrass",[10]; [26],0
same,"Plant response rating, Barnyardgrass",[10]; [27],0
same,"Plant response rating, Flood, Sedge, Umbrella",[11],40
same,"Plant response rating, Sedge, Umbrella",[11]; [25],0
same,"Plant response rating, Sedge, Umbrella",[11]; [26],0
same,"Plant response rating, Sedge, Umbrella",[11]; [27],30
